How the values were obtained:
[1] = test system: IL-17A secretion by CD4+ cells; test: IL-17A secretion by activated CD4+ cells (HTRF); format: cell-based; conditions: 96 h; human CD4+ cells activated with anti-CD3 and anti-CD28, 4 days of incubation, inhibitors 1000 nM to 0.05 nM; read-out: IC50 hCD4/IL17
Protocol: (§1) In the tables described above, the median inhibitory concentrations IC50 for the compounds belonging to formula (I) according to the invention have been given according to the following models:
This model allows measurement of the effect of inhibitors on IL-17A secretion by CD4+ cells. The cells are frozen CD4+ cells (STEMCELL, #70026), isolated from peripheral human blood and activated with anti-CD3 and anti-CD28 antibodies. The amount of IL-17a secreted is measured by the TR-FRET (kit HTRF® Human Interleukin 17A (Cisbio, #64H17PEC)) technology.
The cells are rapidly thawed, resuspended in their culture medium (RPMI inactivated 10% FCS) supplemented with soluble anti-CD28 antibodies and seeded (100 000 cells/well) in 96-well plates precoated with anti-CD3 antibodies. The cells are then treated with the ranges of inhibitors to be tested (from 1000 nM to 0.05 nM, 0.1% DMSO). After 4 days of incubation, the HTRF signal is measured using a microplate reader (λexcitation=337 nm, λemission=620/665 nm). The ratios obtained (665/620) are normalized relative to the positive control (cells activated with anti-CD3 and anti-CD28, 0.1% DMSO). The IC50 values are calculated from a 4-parameter logistic model using the XLFit software (IDBS).

[2] = target: T1, GAL4-RORγ (GAL4 DBD fused to the ROR gamma ligand-binding domain) (Homo sapiens, UniProt P51449); test: GAL4-RORγ transactivation (luciferase reporter, HG5LN HeLa line); format: cell-based; conditions: HG5LN HeLa cells, 18 hours incubation, luciferase luminescence, read-out: IC50 hRORg
T1 construct: expressed in transfected cells; host or cells: HG5LN (HeLa line with GAL4-responsive luciferase reporter)
T1 sequence (P51449 269-508 limits assumed): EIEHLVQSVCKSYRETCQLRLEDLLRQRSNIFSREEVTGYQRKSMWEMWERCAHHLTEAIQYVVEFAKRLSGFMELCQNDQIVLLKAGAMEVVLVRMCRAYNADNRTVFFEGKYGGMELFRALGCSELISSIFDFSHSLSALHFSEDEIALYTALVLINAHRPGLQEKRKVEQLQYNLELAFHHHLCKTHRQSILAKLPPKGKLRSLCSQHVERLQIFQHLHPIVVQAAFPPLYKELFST
Source text: as §1
GAL4-RORγ Transactivation
The RORγ transactivation model was developed from the line HG5LN, which is a HeLa line that stably expresses a luciferase reporter gene controlled by a pentamer of the GAL4 recognition domain of yeast and of a β-globin promoter. The HG5LN line was stably transfected by the DNA-binding domain (DBD) of GAL4 fused to the ROR gamma ligand-binding domain (LBD). Molecules that inhibit the ROR gamma constitutive activity reduce the luciferase expression, thus leading to a reduction in the emitted luminescence.
The cells are seeded in 384-well plates (5000 cells in 45 μL/well of culture medium containing 10% fetal calf serum) and incubated for 4 hours at 37° C., 5% CO2. 5 μL of the test molecules (compounds described in the tables described above) are then added to each well and the plates are incubated for 18 hours at a temperature of 37° C. under 5% of CO2. 20 μL of luciferase substrate (Promega) are added to each well and the luminescence emitted is read by a microplate reader.
The luminescence units (“RLU”) are normalized by positive controls (“POS” containing a saturated concentration of N-(2,2,2-trifluoroethyl)-N-[4-[2,2,2-trifluoro-1-hydroxy-1-(trifluoromethyl)ethyl]phenyl])benzenesulfonamide and negative controls (“NEG” containing DMSO): % inhibition=((RLU−NEG)*100)/(POS−NEG). The IC50 values are calculated from a 4-parameter logistic model using the XLFit software (IDBS).

Compound | IC50 [1] | IC50 [2]
COC(=O)c1ccc(N(CC(C)C)S(=O)(=O)c2ccc3c(cnn3CC3CCOCC3)c2)c(C)c1 [Compound 56, methyl 4-{isobutyl[1-(tetrahydropyran-4-ylmethyl)-1H-indazole-5-sulfonyl]amino}-3-methylbenzoate] | < 100 nM | 100 to 1000 nM
CC(C)CN(c1ccc(N(C)C)cc1)S(=O)(=O)c1ccc2c(cnn2CC2CCOCC2)c1 [Compound 72, 1-(tetrahydropyran-4-ylmethyl)-1H-indazole-5-sulfonic acid (4-dimethylaminophenyl)isobutylamide] | 100 to 1000 nM | 100 to 1000 nM
CCc1ccc(N(CC(C)C)S(=O)(=O)c2ccc3c(CC4CCOCC4)n[nH]c3c2)cc1 [Compound 63, 3-(tetrahydropyran-4-ylmethyl)-1H-indazole-6-sulfonic acid (4-ethylphenyl)isobutylamide] | < 100 nM | < 100 nM
Cc1cc(C)c(N(CC(C)C)S(=O)(=O)c2ccc3c(cnn3CC3CCOCC3)c2)cn1 [Compound 71, 1-(tetrahydropyran-4-ylmethyl)-1H-indazole-5-sulfonic acid (4,6-dimethylpyridin-3-yl)isobutylamide] | > 1000 nM | > 1000 nM
CCc1ccc(N(CC(C)C)S(=O)(=O)c2ccc3c(cnn3Cc3ccncc3)c2)cc1 [Compound 36, N-(4-ethylphenyl)-N-isobutyl-1-(pyridin-4-ylmethyl)-1H-indazole-5-sulfonamide] | < 100 nM | 100 to 1000 nM
CCc1ccc(N(CC(C)C)S(=O)(=O)c2ccc3c(CN4CCOCC4)n[nH]c3c2)cc1 [Compound 64, 3-morpholin-4-ylmethyl-1H-indazole-6-sulfonic acid (4-ethylphenyl)isobutylamide] | < 100 nM | < 100 nM
CCc1ccc(N(C(CC)CC)S(=O)(=O)c2ccc3c(cnn3CC3CCOCC3)c2)cc1 [Compound 1, 1-(tetrahydropyran-4-ylmethyl)-1H-indazole-5-sulfonic acid (4-ethylphenyl)(1-ethylpropyl)amide] | 100 to 1000 nM | 100 to 1000 nM
